The text below walks through data of patent US11530186B2, “Inhibitors for the β-catenin / T-cell factor protein-protein interaction” (H. LEE MOFFITT CANCER CENTER AND RESEARCH INSTITUTE, INC., priority 2018, dated 2022).

Assay type in all cases: binding
For assay [1], the target named is T1, β-catenin/Tcf4 (Homo sapiens, UniProt P35222).
T1 construct: Wild-type β-catenin (residues 138-781) were cloned into a pET-28b vector; 6×histidine (C); made in house; host or cells: E. coli BL21 DE3
T1 sequence (P35222 138-781): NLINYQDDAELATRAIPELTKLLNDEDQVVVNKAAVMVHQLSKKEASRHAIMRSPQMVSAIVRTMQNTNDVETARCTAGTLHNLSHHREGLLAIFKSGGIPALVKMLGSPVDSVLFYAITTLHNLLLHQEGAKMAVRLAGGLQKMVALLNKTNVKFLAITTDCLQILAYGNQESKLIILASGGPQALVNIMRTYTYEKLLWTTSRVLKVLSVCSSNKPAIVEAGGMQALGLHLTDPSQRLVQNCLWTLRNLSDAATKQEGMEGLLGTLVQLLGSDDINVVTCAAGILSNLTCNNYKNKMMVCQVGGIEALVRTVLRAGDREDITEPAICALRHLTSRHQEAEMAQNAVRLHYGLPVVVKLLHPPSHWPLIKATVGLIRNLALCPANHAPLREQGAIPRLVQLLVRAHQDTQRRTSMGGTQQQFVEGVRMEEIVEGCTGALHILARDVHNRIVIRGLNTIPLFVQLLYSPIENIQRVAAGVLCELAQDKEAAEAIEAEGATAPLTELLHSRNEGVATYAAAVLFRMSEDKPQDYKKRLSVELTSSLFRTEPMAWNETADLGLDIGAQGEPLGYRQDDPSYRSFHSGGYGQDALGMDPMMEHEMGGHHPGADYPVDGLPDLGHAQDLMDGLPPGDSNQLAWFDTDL
Nature of the assay: FP selectivity assay, β-catenin/Tcf assay. As to conditions: mean ± SD (n = 3). The procedure: FP Selectivity Assays. Experiments were performed in 96-well Microfluor 2 black plates on a Synergy 2 plate reader (Biotek). The polarization was measured at room temperature with an excitation wavelength at 485 nm and an emission wavelength at 535 nm. The FP experiments were performed in an assay buffer of 25 mM Hepes (pH 7.4), 100 mM NaCl, 0.01% Triton X-100, and 100 μg/ml γ-globulin. The final reaction volume was set to 100 μL. For the β-catenin/Tcf assay, 10 nM human β-catenin (residues 138-781) was incubated with 2.5 nM C-terminally fluorescein-labeled human Tcf4 (residues 7-51) for 30 min at 4° C., and then different concentrations of the compound in assay buffer were added. […] The negative control refers to 5 nM E-cadherin fluorescence tracer and 150 nM β-catenin in assay buffer with no inhibitor presenting. The positive control refers to 5 nM E-cadherin fluorescence tracer in assay buffer. […] The negative control refers to 5 nM APC-R3 fluorescence tracer and 2,000 nM β-catenin in assay buffer without the tested compound. The positive control refers to 5 nM APC-R3 fluorescence tracer in assay buffer. Each assay plate was covered black and gently mixed on an orbital shaker at 4° C. for 2.5 h to reach equilibrium before the polarization values were read. […] The IC50 values were determined by GraphPad Prism 5.0. […] The results were expressed as mean±standard deviation. […]

Assay [2] addresses T2, β-catenin/E-cadherin (Homo sapiens, UniProt P35222).
T2 construct: 150 nM human β-catenin (residues 138-781); 6×histidine (C); made in house; host or cells: E. coli BL21 DE3
T2 sequence (P35222 138-781): T1 sequence (P35222 138-781)
Kind of assay: FP selectivity assay, β-catenin/cadherin assay. On the procedure:
(§1) FP Selectivity Assays. Experiments were performed in 96-well Microfluor 2 black plates on a Synergy 2 plate reader (Biotek). The polarization was measured at room temperature with an excitation wavelength at 485 nm and an emission wavelength at 535 nm. The FP experiments were performed in an assay buffer of 25 mM Hepes (pH 7.4), 100 mM NaCl, 0.01% Triton X-100, and 100 μg/ml γ-globulin. The final reaction volume was set to 100 μL. For the β-catenin/Tcf assay, 10 nM human β-catenin (residues 138-781) was incubated with 2.5 nM C-terminally fluorescein-labeled human Tcf4 (residues 7-51) for 30 min at 4° C., and then different concentrations of the compound in assay buffer were added. […] For the β-catenin/cadherin assay, 150 nM human β-catenin (residues 138-781) was incubated with 5 nM C-terminally fluorescent-labeled human E-cadherin (residues 819-873) in assay buffer for 30 min at 4° C. The negative control refers to 5 nM E-cadherin fluorescence tracer and 150 nM β-catenin in assay buffer with no inhibitor presenting. The positive control refers to 5 nM E-cadherin fluorescence tracer in assay buffer. […] The negative control refers to 5 nM APC-R3 fluorescence tracer and 2,000 nM β-catenin in assay buffer without the tested compound. The positive control refers to 5 nM APC-R3 fluorescence tracer in assay buffer. Each assay plate was covered black and gently mixed on an orbital shaker at 4° C. for 2.5 h to reach equilibrium before the polarization values were read. […] The IC50 values were determined by GraphPad Prism 5.0. […] The results were expressed as mean±standard deviation. The Tcf/cahderin selectivity ratio was calculated on the basis of the respective Ki value of the β-catenin/E-cadherin interaction over that of the β-catenin/Tcf4 interaction. The Tcf/APC selectivity ratio was calculated on the basis of the respective Ki value of the β-catenin/APC-R3 interaction over that of the β-catenin/Tcf4 interaction. […]

The target of assay [3] is T3, β-catenin/APC-R3 (Homo sapiens, UniProt P35222).
T3 construct: 2000 nM human β-catenin (residues 138-781); 6×histidine (C); made in house; host or cells: E. coli BL21 DE3
T3 sequence (P35222 138-781): T1 sequence (P35222 138-781)
Kind of assay: FP selectivity assay, β-catenin/APC-R3 assay. On the procedure: as §1

[4] abbreviates: FP selectivity assay, mean ± SD (n = 3).

By Ki is commonly meant the equilibrium dissociation constant of an inhibitor or competing ligand from its target.

As to `O=C(O)c1ccc2c(c1)c(CCc1ccc(Cl)cc1)c(CCc1nc3ccccc3s1)n2CCc1nn[nH]n1` [Compound 27, 1-(2-(2H-tetrazol-5-yl)ethyl)-2-(2-(benzo[d]thiazol-2-yl)ethyl)-3-(4-chlorophenethyl)-1H-indole-5-carboxylic acid], the Ki in assay [1] is 930 ± 510 nM; in assay [2] (setting [4]), 26 ± 8 µM; in assay [3] (setting [4]), 74 ± 11 µM. The “selectivity for β-catenin/Tcf over β-catenin/cadherin PPI” value in assay [2] (FP selectivity assays) is given as 28 fold. Besides, in assay [2] (ratio of Ki β-catenin/E-cadherin over Ki β-catenin/Tcf4), the “Selectivity Tcf/E-cadherin” value is reported as 28. The “selectivity for β-catenin/Tcf over β-catenin/APC PPI” value in assay [3] (FP selectivity assays) came to 80 fold. Also, in assay [3] (ratio of Ki β-catenin/APC-R3 over Ki β-catenin/Tcf4), the “Selectivity Tcf/APC” value was 80.
